EC50 data for 8 molecules are collected here from patent US10987359B2, “Oxadiazepinone derivatives and methods of treating hepatitis B infections” (priority 2016, dated 2021).

Like-named read-outs stand apart in the source and are kept apart here.

The experiment concerns HBV. The experiment in a line: HBV replication inhibition assay (BDNA assay) in HepG2.2.15 cells. Particulars: HepG2.2.15 cells, read-out: DNA EC50. In kind it is cell-based. The method in brief: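 HepG2.2.15 cells with stably integrated HBV were treated with serially diluted compounds at 0.5% DMSO for 6 days, with medium and compound refreshed at day 3. Encapsidated HBV DNA from DNase-treated supernatant was quantified by branched DNA assay. EC50 came from % inhibition versus DMSO, fitted non-linearly.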

Where [1] appears, read: HBV replication assay (BDNA assay).
Setting [2] is: Hepatitis B virus, HepG2.2.15, HBV replication assay (BDNA assay).

Turning to `C[C@@H]1Cc2nn3c(c2CN1C(=O)Nc1ccnc(Br)c1F)C(=O)N(C)OC(COCC(F)F)C3` (stereo in doubt) [Compound 123_D1, (4S*,9R)—N-(2-bromo-3-fluoropyridin-4-yl)-4-((2,2-difluoroethoxy)methyl)-2,9-dimethyl-1-oxo-1,4,5,8,9,11-hexahydropyrido[4′,3′:3,4]pyrazolo[5,1-d][1,2,5]oxadiazepine-10(2H)-carboxamide], under setting [1], the EC50 fell in the range of 100 to 500 nM.
As to `C[C@@H]1Cc2nn3c(c2CN1C(=O)Nc1ccnc(Br)c1F)C(=O)N(C)OC(COCC(F)F)C3` (stereo in doubt) [Compound 123_D2, (4R*,9R)—N-(2-bromo-3-fluoropyridin-4-yl)-4-((2,2-difluoroethoxy)methyl)-2,9-dimethyl-1-oxo-1,4,5,8,9,11-hexahydropyrido[4′,3′:3,4]pyrazolo[5,1-d][1,2,5]oxadiazepine-10(2H)-carboxamide], under setting [1], the EC50 lay in the range of 1 to 100 nM.
With `C[C@@H]1Cc2nn3c(c2CN1C(=O)Nc1ccc(F)c(C#N)c1)C(=O)N(C)OC(COCC(F)F)C3` (stereo in doubt) [Compound 124_D1, (4S*,9R)—N-(3-cyano-4-fluorophenyl)-4-((2,2-difluoroethoxy)methyl)-2,9-dimethyl-1-oxo-1,4,5,8,9,11-hexahydropyrido[4′,3′:3,4]pyrazolo[5,1-d][1,2,5]oxadiazepine-10(2H)-carboxamide], under setting [2], the EC50 was 1 to 100 nM.
For `C[C@@H]1Cc2nn3c(c2CN1C(=O)Nc1ccc(F)c(C#N)c1)C(=O)N(C)OC(COCC(F)F)C3` (stereo in doubt) [Compound 124_D2, (4R*,9R)—N-(3-cyano-4-fluorophenyl)-4-((2,2-difluoroethoxy)methyl)-2,9-dimethyl-1-oxo-1,4,5,8,9,11-hexahydropyrido[4′,3′:3,4]pyrazolo[5,1-d][1,2,5]oxadiazepine-10(2H)-carboxamide], the EC50 under setting [1] is 1 to 100 nM.
With `Cc1cc(NC(=O)N2Cc3c(nn4c3C(=O)N(C)OC(COCC(F)F)C4)C[C@H]2C)ccc1F` (stereo in doubt) [Compound 125_D1, (4S*,9R)-4-((2,2-difluoroethoxy)methyl)-N-(4-fluoro-3-methylphenyl)-2,9-dimethyl-1-oxo-1,4,5,8,9,11-hexahydropyrido[4′,3′:3,4]pyrazolo[5,1-d][1,2,5]oxadiazepine-10(2H)-carboxamide], under setting [2], the EC50 was 1 to 100 nM.
As to `Cc1cc(NC(=O)N2Cc3c(nn4c3C(=O)N(C)OC(COCC(F)F)C4)C[C@H]2C)ccc1F` (stereo in doubt) [Compound 125_D2, (4R*,9R)-4-((2,2-difluoroethoxy)methyl)-N-(4-fluoro-3-methylphenyl)-2,9-dimethyl-1-oxo-1,4,5,8,9,11-hexahydropyrido[4′,3′:3,4]pyrazolo[5,1-d][1,2,5]oxadiazepine-10(2H)-carboxamide], the concentration giving a half-maximal response (EC50) under setting [1] is 1 to 100 nM.
Turning to `C[C@@H]1Cc2nn3c(c2CN1C(=O)Nc1ccc(F)c(C(F)(F)F)c1)C(=O)N(C)OC(COCC(F)F)C3` (stereo in doubt) [Compound 126_D1, (4S*,9R)-4-((2,2-difluoroethoxy)methyl)-N-(4-fluoro-3-(trifluoromethyl)phenyl)-2,9-dimethyl-1-oxo-1,4,5,8,9,11-hexahydropyrido[4′,3′:3,4]pyrazolo[5,1-d][1,2,5]oxadiazepine-10(2H)-carboxamide], under setting [1], the EC50 fell in the range of 100 to 500 nM.
On the same count and under the same terms, for `C[C@@H]1Cc2nn3c(c2CN1C(=O)Nc1ccc(F)c(C(F)(F)F)c1)C(=O)N(C)OC(COCC(F)F)C3` (stereo in doubt) [Compound 126_D2, (4R*,9R)-4-((2,2-difluoroethoxy)methyl)-N-(4-fluoro-3-(trifluoromethyl)phenyl)-2,9-dimethyl-1-oxo-1,4,5,8,9,11-hexahydropyrido[4′,3′:3,4]pyrazolo[5,1-d][1,2,5]oxadiazepine-10(2H)-carboxamide] the value was 1 to 100 nM.

In general, EC50 refers to the concentration that produces a half-maximal response.
